Data from PubChem BioAssay (NCI).
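How tested: cells in 96-well plates exposed to compound for 48 hours at five concentrations. TGI: concentration producing complete growth inhibition.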

Columns and labels:
Assay in all cases: NCI tumour cell line growth inhibition, 48 h
[1] = tested on: MOLT-4 leukemia
[2] = tested on: NCI/ADR-RES ovarian
[3] = tested on: RPMI-8226 leukemia
[4] = tested on: UO-31 renal
[5] = tested on: KM12 colon
[6] = tested on: UACC-62 melanoma
[7] = tested on: ACHN renal
[8] = tested on: SR leukemia
[9] = tested on: SNB-75 CNS
[10] = tested on: RXF 393 renal
[11] = tested on: U251 CNS
[12] = tested on: SF-268 CNS
[13] = tested on: TK-10 renal
[14] = tested on: HOP-92 NSCLC
[15] = tested on: HCT-116 colon
[16] = tested on: OVCAR-5 ovarian
[17] = tested on: UACC-257 melanoma
[18] = tested on: SK-MEL-2 melanoma
[19] = tested on: EKVX NSCLC

| Structure (SMILES) | TGI [1] [µM] | TGI [2] [µM] | TGI [3] [µM] | TGI [4] [µM] | TGI [5] [µM] | TGI [6] [µM] | TGI [7] [µM] | TGI [8] [µM] | TGI [9] [µM] | TGI [10] [µM] | TGI [11] [µM] | TGI [12] [µM] | TGI [13] [µM] | TGI [14] [µM] | TGI [15] [µM] | TGI [16] [µM] | TGI [17] [µM] | TGI [18] [µM] | TGI [19] [µM] |
| --- | --- | --- | --- | --- | --- | --- | --- | --- | --- | --- | --- | --- | --- | --- | --- | --- | --- | --- | --- |
| Cc1cc2c(cc1Cl)SC(NS(=O)(=O)c1ccc(Cl)cc1)=NS2(=O)=O | 73 | > 100 | > 100 | > 100 | > 100 | > 100 | > 100 | 30.4 | > 100 | 66.5 | > 100 | > 100 | 69.5 | 39.5 | > 100 | > 100 | > 100 | > 100 | > 100 |
| C[N+](CCCl)(CCCl)Cc1cccc2cccc([N+](=O)[O-])c12 | > 100 | > 100 | > 100 | > 100 | > 100 | > 100 | > 100 | > 100 | > 100 | > 100 | > 100 | > 100 | > 100 | > 100 | > 100 | > 100 | > 100 | > 100 | > 100 |
| Oc1cn(-c2ccc(Cl)cc2)nc1-c1nnc(-c2ccccc2)o1 | 19.9 | 7 | 31.9 | 31.9 | 4.05 | > 51.1 | 24.5 | 20.8 | > 100 | 9.55 | 30.8 | 17.9 | 3.76 | 80.6 | 1.14 | 39.3 | 21.6 | > 71.3 | > 60.1 |
| COc1ccc(N2C(=O)C(=O)N(c3ccccc3[N+](=O)[O-])C2=S)cc1 | > 100 | 64.2 | 94.2 | > 100 | 71.9 | 32.5 | 74.8 | > 100 | > 100 | 52.8 | > 100 | > 100 | 65.7 | 57.4 | > 100 | 63.4 | 47.3 | 46 | > 100 |
| FC(F)(F)c1ccc(N=C/C=C(/Nc2ccc(C(F)(F)F)cc2)c2ccc(Cl)cc2)cc1 | > 100 | 32.3 | 84.8 | > 100 | 28.6 | 15.6 | 26.2 | > 100 | 36.8 | 26.4 | 28.2 | 33.2 | 69.1 | 51.4 | 24.5 | 38.3 | 38.3 | 49.6 | 44.4 |
| C=C1C(=O)C[C@H]2C(=C)C(=O)O[C@@H]2C2C1CC[C@@]2(C)O (some centres not stated) | > 100 | 64.2 | > 100 | 74.2 | > 100 | 31.2 | 25 | > 100 | > 100 | 43.9 | > 100 | > 100 | 41.4 | > 100 | > 100 | > 100 | 56.1 | 56.6 | > 100 |
| N=C1/C(=C/c2ccc(F)cc2)C(=O)N=C2SC=NN12 | > 100 | > 100 | > 100 | > 100 | > 100 | > 100 | > 100 | > 100 | > 100 | > 100 | > 100 | > 100 | > 100 | > 100 | > 100 | > 100 | > 100 | > 100 | > 100 |
| COc1cc(OC)c(-c2ccc(OCc3ccccc3)c3c(OC)cc(C)cc23)c2c1C(C)=N[C@H](C)C2 | 4.28 | 3.92 | 3.61 | 2.63 | 4.07 | 3.84 | 4.01 | 3.08 | 4.04 | 4.94 | 3.91 | 3.56 | 3.43 | 3.35 | 3.97 | 4.44 | 3.91 | 4.09 | 4.39 |
| O=C1NC(=O)C(c2c[nH]c3ccccc23)=C1c1cnc[nH]1 | > 100 | > 100 | > 100 | > 100 | > 100 | – | > 100 | > 100 | > 100 | > 100 | > 100 | > 100 | > 100 | > 100 | > 100 | > 100 | > 100 | > 100 | > 100 |
| CCN(CC)CCC(=O)/C=C/c1ccccc1 | 24.2 | 55.1 | 7.5 | 25.8 | 18.5 | – | 26.2 | 16.1 | 28.8 | 21.5 | 25.6 | 15.6 | 32.3 | 28.7 | 22.4 | 31.3 | 31.6 | 65.5 | 22.6 |
| CCOC(=O)C1=C(C)N(Cc2ccc(Cl)cc2Cl)C2(O)C=CC(=O)C3C(=O)N(c4ccccc4)C(=O)C132 (configuration not stated) | 4.93 | 11.1 | 2.18 | 5 | 3.65 | 3.74 | 3.08 | 2.23 | – | 2.87 | 3.8 | 11.3 | 8.09 | 4.09 | > 100 | 22.3 | 5.81 | 4.27 | 4.35 |
| N#Cc1c(-c2ccc(Cl)cc2)c2c([nH]c1=O)-c1ccccc1SC2 | 94.8 | > 100 | 98.8 | > 100 | > 100 | > 100 | – | > 100 | 69.5 | 77.4 | > 100 | > 100 | 52.9 | 71.9 | > 100 | > 100 | > 100 | > 100 | 70.8 |
| NS(=O)(=O)c1ccc(N=Nc2nc3[nH]c(=O)[nH]c(=O)c3[nH]2)cc1 | – | > 100 | > 100 | > 100 | > 100 | > 100 | > 100 | > 100 | > 100 | > 100 | > 100 | > 100 | > 100 | > 100 | > 100 | > 100 | > 100 | > 100 | > 100 |
